From publication PMC3478282, “Probing the Putative Active Site of YjdL: An Unusual Proton-Coupled Oligopeptide Transporter from E. coli” (PLoS ONE, 2012)
Positions count from the first letter of the chain named. Residues, ends and D or L forms follow the SMILES beside them.

Experiments:
Type in all cases: cell-based, E. coli
YjdL Tyr21Phe = target: T1, YjdL Tyr21Phe (Escherichia coli, UniProt P39276, Y21F); assay: β-Ala-Lys(AMCA) uptake and inhibition assay, YjdL Tyr21Phe; conditions: 0.2 mM β-Ala-Lys(AMCA), 5 min incubation, pH 6.5; ±SEM, n≥3
T1 construct: expressed in transfected cells; host or cells: E. coli BL21(DE3)pLysS, pTTQ18-yjdL mutant (QuikChange)
T1 sequence (P39276 1-485 Y21F): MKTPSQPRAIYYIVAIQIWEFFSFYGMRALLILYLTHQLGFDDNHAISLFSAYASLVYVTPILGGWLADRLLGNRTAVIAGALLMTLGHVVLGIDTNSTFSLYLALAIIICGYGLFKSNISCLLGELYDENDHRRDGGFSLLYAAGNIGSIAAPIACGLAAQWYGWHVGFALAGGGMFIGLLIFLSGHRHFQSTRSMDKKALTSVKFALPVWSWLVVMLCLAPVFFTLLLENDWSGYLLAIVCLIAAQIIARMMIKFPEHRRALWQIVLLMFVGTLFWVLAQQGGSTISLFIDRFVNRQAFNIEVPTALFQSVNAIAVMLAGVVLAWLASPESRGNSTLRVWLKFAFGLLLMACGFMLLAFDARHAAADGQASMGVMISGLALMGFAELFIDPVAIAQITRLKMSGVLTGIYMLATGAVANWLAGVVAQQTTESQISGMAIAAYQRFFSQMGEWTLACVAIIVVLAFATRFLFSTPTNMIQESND
Procedure: (§1) Plasmids were transformed into E. coli BL21(DE3)pLysS cells by heat shock and transformants were selected on agar plates containing 100 µg/mL ampicillin and 34 µg/mL chloramphenicol. Single transformants were inoculated into 2 mL LB-media with antibiotics as above and grown overnight. The cultures were diluted 1∶50 in 5 mL LB-media with antibiotics as above, and at an OD600 of 0.5–0.8 protein expression was induced by the addition of 1 mM isopropyl β-D-1-thiogalactopyranoside (IPTG). The cells were harvested after three hours of induction by centrifugation and resuspended in uptake buffer (50 mM MES pH 6.5, 140 mM NaCl, 5.4 mM KCl, 1.8 mM CaCl2, 0.8 mM MgSO4, and 5 mM glucose).
(§2) Uptake assays were performed as previously described, [20]. In a final assay volume of 100 µL; 0.2 mM β-Ala-Lys-N-7-amino-4-methylcoumarin-3-acetic acid (β-Ala-Lys(AMCA), Biotrend) (10 µL) and various concentrations of ligands (purchased from Bachem or Sigma-Aldrich) or uptake buffer (50 µL) were incubated with bacterial cell suspension (OD600 = 10, 40 µL) at 37°C. After 5 min, the uptake was stopped by addition of 500 µL ice-cold uptake buffer followed by immediate centrifugation and washing twice in ice-cold uptake buffer. Finally the cell pellet was resuspended in 100 µL uptake buffer, and the uptake was quantified by fluorescence measurements (excitation at 340 nm and emission at 460 nm) on a Safire 2 fluorimeter. Non-specific uptake was measured as described above on IPTG-induced E. coli BL21(DE3)pLysS cells harboring the empty pTTQ18 vector. All uptake assay experiments were reproduced at least three times independently and data analyses were performed using GraphPad Prism ver. 5.

YjdL Tyr25Phe = target: T2, YjdL Tyr25Phe (Escherichia coli, UniProt P39276, Y25F); assay: β-Ala-Lys(AMCA) uptake and inhibition assay, YjdL Tyr25Phe; conditions: for IC50: 0.2 mM β-Ala-Lys(AMCA), 5 min incubation, pH 6.5, ±SEM, n≥3
T2 construct: expressed in transfected cells; host or cells: E. coli BL21(DE3)pLysS, pTTQ18-yjdL mutant (QuikChange)
T2 sequence (P39276 1-485 Y25F): T1 sequence (P39276 1-485 Y21F) with F21Y, Y25F
Procedure: as §1, §2

YjdL Tyr113Phe = target: T3, YjdL Tyr113Phe (Escherichia coli, UniProt P39276, Y113F); assay: β-Ala-Lys(AMCA) uptake and inhibition assay, YjdL Tyr113Phe; conditions: for IC50: 0.2 mM β-Ala-Lys(AMCA), 5 min incubation, pH 6.5, ±SEM, n≥3
T3 construct: expressed in transfected cells; host or cells: E. coli BL21(DE3)pLysS, pTTQ18-yjdL mutant (QuikChange)
T3 sequence (P39276 1-485 Y113F): T1 sequence (P39276 1-485 Y21F) with F21Y, Y113F
Procedure: as §1, §2

YjdL Ala281Phe = target: T4, YjdL Ala281Phe (Escherichia coli, UniProt P39276, A281F); assay: β-Ala-Lys(AMCA) uptake and inhibition assay, YjdL Ala281Phe; conditions: for IC50: 0.2 mM β-Ala-Lys(AMCA), 5 min incubation, pH 6.5, ±SEM, n≥3
T4 construct: host or cells: E. coli BL21(DE3)pLysS
T4 sequence (P39276 1-485 A281F): T1 sequence (P39276 1-485 Y21F) with F21Y, A281F
Procedure: as §1, §2

YdgR Tyr71Phe = target: T5, YdgR Tyr71Phe (Escherichia coli, UniProt P77304, Y71F); assay: β-Ala-Lys(AMCA) uptake and inhibition assay, YdgR Tyr71Phe
T5 construct: host or cells: E. coli BL21(DE3)pLysS
Procedure: as §1
as §2, with “After 5 min, the uptake was stopped by addition of 500 µL ice-cold uptake buffer followed by immediate centrifugation and washing twice in ice-cold uptake buffer.” left out, “All uptake assay experiments were reproduced at least three times independently and data analyses were performed using GraphPad Prism ver. 5.” left out

[1] = 0.2 mM, 5 min, pH 6.5 (Figure 3)

T5 sequence (P77304 whole entry Y71F): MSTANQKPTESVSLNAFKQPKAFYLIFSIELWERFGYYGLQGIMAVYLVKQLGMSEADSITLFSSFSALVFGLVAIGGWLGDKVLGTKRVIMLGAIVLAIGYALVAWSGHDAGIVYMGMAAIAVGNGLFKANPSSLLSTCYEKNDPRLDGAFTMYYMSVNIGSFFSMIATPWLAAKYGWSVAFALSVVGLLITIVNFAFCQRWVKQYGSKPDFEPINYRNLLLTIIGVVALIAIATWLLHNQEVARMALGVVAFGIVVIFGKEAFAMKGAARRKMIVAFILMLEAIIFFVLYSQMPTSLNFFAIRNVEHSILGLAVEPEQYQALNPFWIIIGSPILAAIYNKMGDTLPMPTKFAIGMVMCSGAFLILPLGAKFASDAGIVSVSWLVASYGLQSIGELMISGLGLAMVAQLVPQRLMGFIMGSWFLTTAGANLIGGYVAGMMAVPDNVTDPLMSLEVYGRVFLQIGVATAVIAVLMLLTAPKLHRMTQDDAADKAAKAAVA

C[C@H](NC(=O)[C@@H](N)Cc1ccc(O)cc1)C(=O)O [Tyr-Ala]
IC50 (YjdL Tyr21Phe): 4700 ± 800 µM
IC50 (YjdL Tyr25Phe): 33700 ± 3900 µM
IC50 (YjdL Tyr113Phe): 1300 ± 300 µM
IC50 (YjdL Ala281Phe): 33200 ± 3400 µM

β-Ala-Lys-N-7-amino-4-methylcoumarin-3-acetic acid [β-Ala-Lys(AMCA)]
β-Ala-Lys(AMCA) uptake level, YjdL Tyr25Phe (YjdL Tyr25Phe; [1]): 27%
increase of β-Ala-Lys(AMCA) uptake, YjdL Tyr113Phe (YjdL Tyr113Phe; [1]): ~2 fold
increase of β-Ala-Lys(AMCA) uptake compared to WT-YjdL, Ala281Phe (YjdL Ala281Phe; [1]): ~3 fold
β-Ala-Lys(AMCA) uptake level, YdgR Tyr71Phe (YdgR Tyr71Phe; 0.2 mM, 5 min, pH 6.5 (Figure 4)): 27%

C[C@H](N)C(=O)N[C@@H](C)C(=O)O [Ala-Ala] (H-Ala-Ala-OH)
IC50 (YjdL Tyr21Phe): 4500 ± 300 µM
IC50 (YjdL Tyr25Phe): > 50000 µM
IC50 (YjdL Tyr113Phe): 1900 ± 100 µM
IC50 (YjdL Ala281Phe): > 50000 µM
IC50 (YdgR Tyr71Phe; 0.2 mM β-Ala-Lys(AMCA), 5 min incubation, pH 6.5, ±SEM, n≥3): 370 ± 30 µM

C[C@H](N)C(=O)N[C@@H](CCCCN)C(=O)O [Ala-Lys] (H-Ala-Lys-OH)
IC50 (YjdL Tyr21Phe): 450 ± 70 µM
IC50 (YjdL Tyr25Phe): 400 ± 80 µM
IC50 (YjdL Tyr113Phe): 340 ± 40 µM
IC50 (YjdL Ala281Phe): 260 ± 20 µM
